Laboratory results published in the supplement of paper PMC11208160.

Test: recombinant barcode read abundance after kanamycin selection (control-corrected) (log10(CPM+1)); higher = more efficient recombination; sequences stand for … in AGTGCAGAGAAAATCGGCCAGTTTTCTCTGCCTGCAGTCCGCATGCCGT…AGATTTATGCAGCGGACTGCCTTTCTCCCAAAGTGATAAACCGGACAGTATCATGGACCGGTTTTCCCGGTAATCCGTATTTGCAAGGTTGGTTTCACT; site = the 11-nt target
Procedure, shortened: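 Duplicate cultures were plated either on chloramphenicol/ampicillin LB agar, serving as control, or on chloramphenicol/ampicillin/kanamycin with 0.1 mM IPTG. These came from a pooled E. coli library co-electroporated with a donor plasmid, each member pairing a target with an IS621 bridge RNA target-binding loop. Recombination efficiency equals averaged, control-corrected counts per million of recombinant-junction barcodes. It is listed as log10(CPM+1).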
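Note: IS621 recombinase and bridge RNA in Escherichia coli cells.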

Sequence	recombinant barcode read abundance (log10)
TTACGCGCTTGGGTTCTAACCTGTTGCGG (site TTACGAGCTCC)	0.258
TTACGCGCTTGGGTTCTAACCTGTTGCGG (site TTACGCGCTCC)	1.67
TTACGCGCTTGGGTTCTAACCTGTTGCGG (site TTACGGGCTCC)	0.0728
TTACGCGCTTGGGTTCTAACCTGTTGCGG (site TTACGTGCTCC)	0.0492
TTAGACTCTTGGGTTCTAACCTGTTGCCA (site TTAGACTCTTA)	0.0659
TTAGACTCTTGGGTTCTAACCTGTTGCCA (site TTAGACTCTTG)	1.06
TTAGCTTCTTGGGTTCTAACCTGTTGCCT (site TTAGCATCTAG)	0.078
TTAGCTTCTTGGGTTCTAACCTGTTGCCT (site TTAGCCTCTAG)	0.0176
TTAGCTTCTTGGGTTCTAACCTGTTGCCT (site TTAGCGTCTAG)	0.0371
TTAGCTTCTTGGGTTCTAACCTGTTGCCT (site TTAGCTTCTAG)	0.163
TTATACACTTGGGTTCTAACCTGTTGCAG (site CAGCGGTCTTC)	0.0563
TTATACACTTGGGTTCTAACCTGTTGCAG (site TTATACACTCT)	1.98
TTATGAGCTTGGGTTCTAACCTGTTGCCG (site ATATGAGCTTG)	0.012
TTATGAGCTTGGGTTCTAACCTGTTGCCG (site TTATGAGCTCG)	1.2
TTATGGTCTTGGGTTCTAACCTGTTGCTA (site TCTTGGTCTTA)	0.257
TTATGGTCTTGGGTTCTAACCTGTTGCTA (site TTATGGTCTTA)	0.705
TTATTGTCTTGGGTTCTAACCTGTTGCCT (site TTATTGTCTAG)	1.37
TTATTGTCTTGGGTTCTAACCTGTTGCCT (site TTCTTGCCTAG)	0.024
TTCAAACCTTGGGTTCTAACCTGTTGCCT (site TTCAAAACTAG)	0.0532
TTCAAACCTTGGGTTCTAACCTGTTGCCT (site TTCAAACCTAG)	0.612
TTCAAACCTTGGGTTCTAACCTGTTGCCT (site TTCAAAGCTAG)	0.0476
TTCAAACCTTGGGTTCTAACCTGTTGCCT (site TTCAAATCTAG)	0.115

Sequence	recombinant barcode read abundance (log10)
TTCAAATCTTGGGTTCTAACCTGTTGCCT (site TTCAAAACTAG)	0.0847
TTCAAATCTTGGGTTCTAACCTGTTGCCT (site TTCAAACCTAG)	0.242
TTCAAATCTTGGGTTCTAACCTGTTGCCT (site TTCAAAGCTAG)	0.182
TTCAAATCTTGGGTTCTAACCTGTTGCCT (site TTCAAATCTAG)	0
TTCAAGCCTTGGGTTCTAACCTGTTGCCT (site TTCAAGACTAG)	0.0598
TTCAAGCCTTGGGTTCTAACCTGTTGCCT (site TTCAAGCCTAG)	0.329
TTCAAGCCTTGGGTTCTAACCTGTTGCCT (site TTCAAGGCTAG)	0.0261
TTCAAGCCTTGGGTTCTAACCTGTTGCCT (site TTCAAGTCTAG)	0.0767
TTCACACCTTGGGTTCTAACCTGTTGCCT (site TTCACACCTAG)	0.385
TTCACACCTTGGGTTCTAACCTGTTGCCT (site TTCACAGCTAG)	0.00569
TTCAGGGCTTGGGTTCTAACCTGTTGCAG (site AGAGCCTCTTA)	0.111
TTCAGGGCTTGGGTTCTAACCTGTTGCAG (site TTCAGGGCTCT)	1.99
TTCATACCTTGGGTTCTAACCTGTTGCTT (site GTCTTACCTAA)	0.0129
TTCATACCTTGGGTTCTAACCTGTTGCTT (site TTCATACCTAA)	0.0848
TTCATGTCTTGGGTTCTAACCTGTTGCTT (site CTCATGTCTAA)	0.138
TTCATGTCTTGGGTTCTAACCTGTTGCTT (site TTCATGTCTAA)	0.421
TTCCACACTTGGGTTCTAACCTGTTGCGG (site TTCCAAACTCC)	0.116
TTCCACACTTGGGTTCTAACCTGTTGCGG (site TTCCACACTCC)	1.04
TTCCGCTCTTGGGTTCTAACCTGTTGCCT (site ATCCGCTCTAG)	0.112
TTCCGCTCTTGGGTTCTAACCTGTTGCCT (site CTCCGCTCTAG)	0.121
TTCCGCTCTTGGGTTCTAACCTGTTGCCT (site GTCCGCTCTAG)	0.139
TTCCGCTCTTGGGTTCTAACCTGTTGCCT (site TTCCGCTCTAG)	1.26

Sequence	recombinant barcode read abundance (log10)
TTCCTAGCTTGGGTTCTAACCTGTTGCCA (site ATCCTAGCTCG)	0.493
TTCCTAGCTTGGGTTCTAACCTGTTGCCA (site TTCCTAGCTTG)	0.109
TTCCTGACTTGGGTTCTAACCTGTTGCCT (site CTCCTGCCTAG)	0.0475
TTCCTGACTTGGGTTCTAACCTGTTGCCT (site TTCCTGACTAG)	1.69
TTCGACGCTTGGGTTCTAACCTGTTGCCT (site TTAGACTCTAG)	0.152
TTCGACGCTTGGGTTCTAACCTGTTGCCT (site TTCGACGCTAG)	1.03
TTCGACTCTTGGGTTCTAACCTGTTGCTA (site TACGACTCTAA)	0.137
TTCGACTCTTGGGTTCTAACCTGTTGCTA (site TTCGACTCTTA)	1.07
TTCGGACCTTGGGTTCTAACCTGTTGCGG (site GGGACCACTTA)	0.677
TTCGGACCTTGGGTTCTAACCTGTTGCGG (site TTCGGACCTCC)	2.62
TTCTACCCTTGGGTTCTAACCTGTTGCCT (site TACTACCCTAG)	0.0731
TTCTACCCTTGGGTTCTAACCTGTTGCCT (site TCCTACCCTAG)	0.149
TTCTACCCTTGGGTTCTAACCTGTTGCCT (site TGCTACCCTAG)	0.0636
TTCTACCCTTGGGTTCTAACCTGTTGCCT (site TTCTACCCTAG)	0.449
TTCTAGACTTGGGTTCTAACCTGTTGCCA (site GTCTATACTTG)	0.16
TTCTAGACTTGGGTTCTAACCTGTTGCCA (site TTCTAGACTTG)	0.353
TTCTCGCCTTGGGTTCTAACCTGTTGCCT (site TTCACGCCTAG)	0.0182
TTCTCGCCTTGGGTTCTAACCTGTTGCCT (site TTCCCGCCTAG)	0.536
TTCTCGCCTTGGGTTCTAACCTGTTGCCT (site TTCGCGCCTAG)	0.00706
TTCTCGCCTTGGGTTCTAACCTGTTGCCT (site TTCTCGCCTAG)	0.576
TTCTGTCCTTGGGTTCTAACCTGTTGCCT (site TTCTATCCTAG)	0.0361
TTCTGTCCTTGGGTTCTAACCTGTTGCCT (site TTCTCTCCTAG)	0.0821

Sequence	recombinant barcode read abundance (log10)
TTCTGTCCTTGGGTTCTAACCTGTTGCCT (site TTCTGTCCTAG)	0.799
TTCTGTCCTTGGGTTCTAACCTGTTGCCT (site TTCTTTCCTAG)	0.0428
TTCTGTTCTTGGGTTCTAACCTGTTGCCT (site TTCTCTTCTAG)	0.0281
TTCTGTTCTTGGGTTCTAACCTGTTGCCT (site TTCTGTTCTAG)	0.196
TTCTTAACTTGGGTTCTAACCTGTTGCGG (site ACTGATCCTAT)	0.0323
TTCTTAACTTGGGTTCTAACCTGTTGCGG (site TTCTTAACTCC)	0.532
TTGAACCCTTGGGTTCTAACCTGTTGCGT (site ATGAACCCTAC)	0.303
TTGAACCCTTGGGTTCTAACCTGTTGCGT (site TTGAACCCTAC)	1.63
TTGAAGCCTTGGGTTCTAACCTGTTGCCT (site ATGAAGCCTAG)	0.41
TTGAAGCCTTGGGTTCTAACCTGTTGCCT (site CTGAAGCCTAG)	0.0479
TTGAAGCCTTGGGTTCTAACCTGTTGCCT (site GTGAAGCCTAG)	0.0341
TTGAAGCCTTGGGTTCTAACCTGTTGCCT (site TTGAAGCCTAG)	1.38
TTGAATTCTTGGGTTCTAACCTGTTGCTT (site TTGAATTCTAA)	0.0275
TTGAATTCTTGGGTTCTAACCTGTTGCTT (site TTGTATTCTAG)	0.234
TTGACACCTTGGGTTCTAACCTGTTGCCT (site GGAGTCACTCC)	0.0713
TTGACACCTTGGGTTCTAACCTGTTGCCT (site TTGACACCTAG)	1.1
TTGACTGCTTGGGTTCTAACCTGTTGCCT (site TTGAATGCTAG)	0.0744
TTGACTGCTTGGGTTCTAACCTGTTGCCT (site TTGACTGCTAG)	0.812
TTGACTGCTTGGGTTCTAACCTGTTGCCT (site TTGAGTGCTAG)	0.0596
TTGACTGCTTGGGTTCTAACCTGTTGCCT (site TTGATTGCTAG)	0.0272
